Test results reported in article PMC11062922 (Nature Chemical Biology, 2023).
Read-outs that look alike come from different tables or passages of the source.

Legend:
EPHB6 = target: T1, EPHB6 (Homo sapiens, UniProt O15197); experiment: Kinobeads two-dose competition binding: EPHB6
T1 construct: to maximize the representation of endogenous proteins; endogenous in cells
T1 sequence (O15197 32-1021): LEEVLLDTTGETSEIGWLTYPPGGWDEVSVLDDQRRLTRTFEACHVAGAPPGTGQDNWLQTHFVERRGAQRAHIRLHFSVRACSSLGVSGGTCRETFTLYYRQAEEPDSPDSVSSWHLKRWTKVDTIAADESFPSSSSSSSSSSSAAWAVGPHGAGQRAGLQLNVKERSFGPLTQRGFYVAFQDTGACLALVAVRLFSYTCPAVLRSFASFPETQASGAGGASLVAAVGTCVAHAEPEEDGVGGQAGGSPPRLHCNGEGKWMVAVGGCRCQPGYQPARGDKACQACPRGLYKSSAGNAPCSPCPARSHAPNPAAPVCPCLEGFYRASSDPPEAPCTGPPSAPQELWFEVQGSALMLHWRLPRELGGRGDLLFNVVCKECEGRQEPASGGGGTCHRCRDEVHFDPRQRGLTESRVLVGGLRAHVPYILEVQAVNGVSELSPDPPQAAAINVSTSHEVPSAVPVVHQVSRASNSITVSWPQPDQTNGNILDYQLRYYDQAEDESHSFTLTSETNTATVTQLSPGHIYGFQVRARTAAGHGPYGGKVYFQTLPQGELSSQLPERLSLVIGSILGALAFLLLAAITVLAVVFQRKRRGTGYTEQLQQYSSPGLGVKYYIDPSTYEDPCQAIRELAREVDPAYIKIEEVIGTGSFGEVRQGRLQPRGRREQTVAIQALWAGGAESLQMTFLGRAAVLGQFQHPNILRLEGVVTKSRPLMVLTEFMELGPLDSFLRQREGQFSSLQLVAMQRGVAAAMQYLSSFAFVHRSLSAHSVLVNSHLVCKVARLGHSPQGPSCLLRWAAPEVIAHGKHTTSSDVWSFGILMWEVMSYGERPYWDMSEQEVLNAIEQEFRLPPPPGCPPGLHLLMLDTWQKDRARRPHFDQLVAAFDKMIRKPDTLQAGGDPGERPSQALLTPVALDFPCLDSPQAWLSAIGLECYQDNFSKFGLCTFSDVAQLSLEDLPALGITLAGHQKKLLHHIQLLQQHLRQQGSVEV
From the text: Briefly, Kinobeads comprise seven broad-spectrum small molecule kinase inhibitors immobilized on Sepharose beads. […]. Compounds of interest are set to compete for target protein binding with Kinobeads in the lysate and the amount of a given protein bound to Kinobeads in the presence of a compound can be quantified relative to a dimethylsulfoxide (DMSO) vehicle control by label-free mass spectrometry. This assay measures the physical interaction of a compound with thousands of endogenous proteins in parallel and, when systematically increasing the concentration of competitor, enables the calculation of an apparent interaction constant ( Kdapp ) for each compound and protein.
Kinobeads pulldown experiments were performed as described previously[13],[14],[17] with minor modification. […] The protein concentration was adjusted to 5 mg ml^−1. Kinase inhibitors were spiked into 0.5 ml of cell lysate at final concentrations of 100 and 1,000 nM (or DMSO, 0.3, 1, 3, 10, 30, 100, 300 and 1,000 nM for full dose experiments). […] Lysates were incubated for 45 min at 4 °C. Subsequently, lysates were incubated with Kinobeads ε (17.5 µl of settled beads) for 30 min at 4 °C. To assess the degree of protein depletion from the lysates by Kinobeads, the flow through of the DMSO control was recovered for a pulldown of pulldown experiment where the lysate was incubated a second time with fresh Kinobeads. Beads were washed in three steps with buffer containing 0.4%, 0.2% and no IGEPAL. Bound proteins were reduced with 50 mM DTT in 8 M Urea, 40 mM Tris-HCl pH 7.4 for 30 min at room temperature. After alkylation with 55 mM chloroacetamide, the urea concentration was reduced to 1–2 M and proteins were digested with trypsin. Acidified peptides were desalted and concentrated using SepPak tC18 µEluation plates (Waters). Samples were frozen, dried by vacuum centrifugation and stored at −20 °C.
Each kinase inhibitor was processed together with all DMSO controls of the same plate. Additionally, each search was supplemented with five high quality DMSO controls for consistent peptide identification and protein grouping. The resultant file (proteinGroups.txt) was used for subsequent filtering, normalization, data visualization and target annotation that was automatically performed by a data processing pipeline built in house that used R (including the ‘drc’ and ‘heatmap’ packages). First, reverse hits, potential contaminants and not quantified proteins in the DMSO control samples were discarded. Protein raw and label-free quantification intensities were normalized to the median DMSO control intensity to obtain relative residual binding intensities for each protein group at every inhibitor concentration and standard deviations of the DMSO control intensity were calculated. IC50 values were estimated based on the following equation IC50=I×100−inhibition/inhibition where [I] is the inhibitor concentration that was used for IC50 calculation and ‘inhibition’ the relative residual binding intensity. […]. Estimated Kdapp values were then calculated by multiplying the estimated IC50 values with a protein-dependent correction factor that was limited to a maximum value of one. The correction factor accounts for the depletion of a target protein from the lysate by Kinobeads. The depletion can be measured by the ratio of the amount of protein captured in two consecutive pulldowns of the same DMSO control lysate. In this study, correction factors were determined in separate experiments using the same lysate mixture and the same bead batch. Correction factors were set to the median of all correction factors. Targets of kinase inhibitors were annotated using the previously published random forest classifier. A training data set was annotated manually. […]

FLT3 = experiment: Kinobeads two-dose competition binding: FLT3; parameters: species or system human
ACOX1 = target: T2, ACOX1 (Homo sapiens, UniProt Q15067); experiment: Kinobeads two-dose competition binding: ACOX1; details: for CATDS: sheet CATDS matrix 2, Gene Name ACOX1;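 on all read-outs here: competition of compounds with immobilized broad-spectrum kinase inhibitor beads in cell lysate at 100 and 1,000 nM, 45 min at 4 °C, bead-bound protein quantified by label-free MS versus DMSO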
T2 construct: endogenous in cells
T2 sequence (Q15067 1-660): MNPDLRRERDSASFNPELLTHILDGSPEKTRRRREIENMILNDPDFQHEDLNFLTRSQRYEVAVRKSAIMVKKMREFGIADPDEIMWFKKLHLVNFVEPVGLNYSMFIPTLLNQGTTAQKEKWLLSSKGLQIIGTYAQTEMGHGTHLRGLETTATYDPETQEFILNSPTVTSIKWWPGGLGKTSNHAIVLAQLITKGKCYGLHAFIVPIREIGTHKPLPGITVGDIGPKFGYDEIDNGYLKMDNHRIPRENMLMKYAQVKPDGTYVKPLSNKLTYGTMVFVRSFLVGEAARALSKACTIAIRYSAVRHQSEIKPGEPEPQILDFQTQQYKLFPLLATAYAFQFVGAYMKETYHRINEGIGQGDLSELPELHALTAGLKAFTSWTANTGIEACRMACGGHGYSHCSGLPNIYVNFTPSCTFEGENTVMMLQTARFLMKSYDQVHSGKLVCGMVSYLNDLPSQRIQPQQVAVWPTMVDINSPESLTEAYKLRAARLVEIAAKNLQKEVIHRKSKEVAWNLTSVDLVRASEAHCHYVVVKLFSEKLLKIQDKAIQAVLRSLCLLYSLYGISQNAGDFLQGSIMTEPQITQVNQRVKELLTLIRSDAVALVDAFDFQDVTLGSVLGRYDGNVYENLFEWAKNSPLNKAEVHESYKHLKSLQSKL

AAK1 = target: T3, AAK1 (Homo sapiens, UniProt Q2M2I8); experiment: Kinobeads two-dose competition binding: AAK1; details: for potency estimated from few doses: sheet "Kinobeads Drugmatrix - all", unit inferred, same values below 1000 recur in sheet "nanomolar", read-out: Kinobeads Drugmatrix - all: apparent Kd, AAK1; for CATDS: sheet CATDS matrix 2, Gene Name AAK1;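 on all read-outs here: kinobeads competition pulldown from cell lysate, compound preincubated 45 min at 4 °C, bead-bound protein measured by label-free mass spectrometry against DMSO vehicle control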
T3 construct: to maximize the representation of endogenous proteins; endogenous in cells
T3 sequence (Q2M2I8 whole entry): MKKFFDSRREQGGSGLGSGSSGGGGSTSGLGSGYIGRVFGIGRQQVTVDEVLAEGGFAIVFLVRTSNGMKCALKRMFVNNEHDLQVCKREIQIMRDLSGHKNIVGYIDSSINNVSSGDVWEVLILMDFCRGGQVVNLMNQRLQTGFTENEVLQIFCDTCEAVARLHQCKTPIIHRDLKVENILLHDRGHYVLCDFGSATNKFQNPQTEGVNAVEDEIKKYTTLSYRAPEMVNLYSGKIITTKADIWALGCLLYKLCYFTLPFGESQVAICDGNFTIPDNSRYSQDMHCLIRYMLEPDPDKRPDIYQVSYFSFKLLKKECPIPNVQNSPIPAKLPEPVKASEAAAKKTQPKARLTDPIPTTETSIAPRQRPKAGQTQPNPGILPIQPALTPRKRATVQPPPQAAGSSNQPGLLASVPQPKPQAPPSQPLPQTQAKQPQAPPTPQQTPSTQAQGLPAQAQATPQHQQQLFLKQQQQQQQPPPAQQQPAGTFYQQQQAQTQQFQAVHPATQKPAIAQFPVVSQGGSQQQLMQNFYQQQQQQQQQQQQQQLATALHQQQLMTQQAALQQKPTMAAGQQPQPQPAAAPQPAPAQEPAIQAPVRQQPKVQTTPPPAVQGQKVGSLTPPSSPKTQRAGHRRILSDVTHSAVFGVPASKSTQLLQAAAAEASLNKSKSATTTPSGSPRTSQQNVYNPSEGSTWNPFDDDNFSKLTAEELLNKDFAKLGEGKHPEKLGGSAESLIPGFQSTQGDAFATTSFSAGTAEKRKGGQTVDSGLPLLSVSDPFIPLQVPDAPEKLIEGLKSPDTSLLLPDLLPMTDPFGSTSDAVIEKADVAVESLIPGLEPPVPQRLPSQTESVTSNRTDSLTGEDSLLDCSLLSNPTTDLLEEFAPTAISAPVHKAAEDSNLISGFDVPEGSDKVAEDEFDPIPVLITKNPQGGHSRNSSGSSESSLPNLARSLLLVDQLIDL

ACAD11 [1] = target: T4, ACAD11 (Homo sapiens, UniProt Q709F0); experiment: Kinobeads two-dose competition binding: ACAD11; details: sheet "Kinobeads Drugmatrix - all"; unit inferred; read-out: Kinobeads Drugmatrix - all: apparent Kd, ACAD11
T4 construct: endogenous in cells
T4 sequence (Q709F0 1-780): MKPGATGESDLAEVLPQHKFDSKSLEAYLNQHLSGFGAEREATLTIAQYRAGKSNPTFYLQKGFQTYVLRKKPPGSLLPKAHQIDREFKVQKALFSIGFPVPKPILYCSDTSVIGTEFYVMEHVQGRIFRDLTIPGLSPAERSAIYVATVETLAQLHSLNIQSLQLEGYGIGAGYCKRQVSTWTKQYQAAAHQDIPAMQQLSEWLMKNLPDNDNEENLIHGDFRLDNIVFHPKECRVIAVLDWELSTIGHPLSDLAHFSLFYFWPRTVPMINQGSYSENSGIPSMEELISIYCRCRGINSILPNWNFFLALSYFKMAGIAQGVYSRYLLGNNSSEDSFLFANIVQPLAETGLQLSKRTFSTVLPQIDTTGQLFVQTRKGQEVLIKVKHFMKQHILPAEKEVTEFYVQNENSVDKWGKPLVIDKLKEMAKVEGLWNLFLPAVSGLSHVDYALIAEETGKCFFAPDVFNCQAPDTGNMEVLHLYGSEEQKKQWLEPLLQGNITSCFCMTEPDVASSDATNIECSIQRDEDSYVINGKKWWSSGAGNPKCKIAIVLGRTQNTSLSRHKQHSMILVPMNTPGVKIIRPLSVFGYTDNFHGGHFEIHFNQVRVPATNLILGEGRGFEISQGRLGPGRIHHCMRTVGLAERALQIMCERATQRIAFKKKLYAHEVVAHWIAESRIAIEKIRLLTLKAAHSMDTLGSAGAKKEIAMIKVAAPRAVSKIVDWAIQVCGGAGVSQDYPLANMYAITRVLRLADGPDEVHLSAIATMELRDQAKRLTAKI

ABL1 = ABL1 (Homo sapiens, UniProt P00519); experiment: Kinobeads two-dose competition binding: ABL1; details: sheet CATDS matrix 2; Gene Name ABL1
ABL1, sequence (P00519 28-1130 limits assumed): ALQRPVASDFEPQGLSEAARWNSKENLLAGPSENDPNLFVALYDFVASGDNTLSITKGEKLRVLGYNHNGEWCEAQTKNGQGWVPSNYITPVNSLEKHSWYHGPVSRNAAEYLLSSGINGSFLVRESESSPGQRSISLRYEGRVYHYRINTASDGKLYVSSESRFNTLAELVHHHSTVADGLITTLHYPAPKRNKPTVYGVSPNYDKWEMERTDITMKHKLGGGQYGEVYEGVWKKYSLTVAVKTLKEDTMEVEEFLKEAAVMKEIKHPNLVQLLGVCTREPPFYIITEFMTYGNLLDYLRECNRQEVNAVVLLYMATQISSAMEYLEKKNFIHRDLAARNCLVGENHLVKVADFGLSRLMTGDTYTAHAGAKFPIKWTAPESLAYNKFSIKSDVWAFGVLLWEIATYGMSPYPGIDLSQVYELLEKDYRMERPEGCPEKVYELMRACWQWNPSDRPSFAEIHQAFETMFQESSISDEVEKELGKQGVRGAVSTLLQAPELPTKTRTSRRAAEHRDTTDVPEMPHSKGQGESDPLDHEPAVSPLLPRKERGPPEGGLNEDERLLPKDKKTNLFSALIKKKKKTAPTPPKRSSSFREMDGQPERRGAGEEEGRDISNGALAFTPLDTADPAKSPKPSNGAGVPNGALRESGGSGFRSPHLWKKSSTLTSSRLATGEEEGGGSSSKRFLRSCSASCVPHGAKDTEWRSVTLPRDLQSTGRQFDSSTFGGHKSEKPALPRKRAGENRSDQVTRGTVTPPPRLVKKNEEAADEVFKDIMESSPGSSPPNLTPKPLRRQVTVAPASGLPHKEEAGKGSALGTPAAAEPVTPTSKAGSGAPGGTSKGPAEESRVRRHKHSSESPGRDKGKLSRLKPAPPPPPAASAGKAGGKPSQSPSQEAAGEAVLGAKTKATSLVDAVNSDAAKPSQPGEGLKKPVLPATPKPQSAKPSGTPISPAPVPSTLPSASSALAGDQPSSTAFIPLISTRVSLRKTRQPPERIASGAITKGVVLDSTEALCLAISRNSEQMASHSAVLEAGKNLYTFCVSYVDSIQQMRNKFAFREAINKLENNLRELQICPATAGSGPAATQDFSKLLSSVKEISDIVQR

ABL2 = target: T5, ABL2 (Homo sapiens, UniProt P42684); experiment: Kinobeads two-dose competition binding: ABL2; details: sheet CATDS matrix 2; Gene Name ABL2
T5 construct: endogenous in cells
T5 sequence (P42684 whole entry): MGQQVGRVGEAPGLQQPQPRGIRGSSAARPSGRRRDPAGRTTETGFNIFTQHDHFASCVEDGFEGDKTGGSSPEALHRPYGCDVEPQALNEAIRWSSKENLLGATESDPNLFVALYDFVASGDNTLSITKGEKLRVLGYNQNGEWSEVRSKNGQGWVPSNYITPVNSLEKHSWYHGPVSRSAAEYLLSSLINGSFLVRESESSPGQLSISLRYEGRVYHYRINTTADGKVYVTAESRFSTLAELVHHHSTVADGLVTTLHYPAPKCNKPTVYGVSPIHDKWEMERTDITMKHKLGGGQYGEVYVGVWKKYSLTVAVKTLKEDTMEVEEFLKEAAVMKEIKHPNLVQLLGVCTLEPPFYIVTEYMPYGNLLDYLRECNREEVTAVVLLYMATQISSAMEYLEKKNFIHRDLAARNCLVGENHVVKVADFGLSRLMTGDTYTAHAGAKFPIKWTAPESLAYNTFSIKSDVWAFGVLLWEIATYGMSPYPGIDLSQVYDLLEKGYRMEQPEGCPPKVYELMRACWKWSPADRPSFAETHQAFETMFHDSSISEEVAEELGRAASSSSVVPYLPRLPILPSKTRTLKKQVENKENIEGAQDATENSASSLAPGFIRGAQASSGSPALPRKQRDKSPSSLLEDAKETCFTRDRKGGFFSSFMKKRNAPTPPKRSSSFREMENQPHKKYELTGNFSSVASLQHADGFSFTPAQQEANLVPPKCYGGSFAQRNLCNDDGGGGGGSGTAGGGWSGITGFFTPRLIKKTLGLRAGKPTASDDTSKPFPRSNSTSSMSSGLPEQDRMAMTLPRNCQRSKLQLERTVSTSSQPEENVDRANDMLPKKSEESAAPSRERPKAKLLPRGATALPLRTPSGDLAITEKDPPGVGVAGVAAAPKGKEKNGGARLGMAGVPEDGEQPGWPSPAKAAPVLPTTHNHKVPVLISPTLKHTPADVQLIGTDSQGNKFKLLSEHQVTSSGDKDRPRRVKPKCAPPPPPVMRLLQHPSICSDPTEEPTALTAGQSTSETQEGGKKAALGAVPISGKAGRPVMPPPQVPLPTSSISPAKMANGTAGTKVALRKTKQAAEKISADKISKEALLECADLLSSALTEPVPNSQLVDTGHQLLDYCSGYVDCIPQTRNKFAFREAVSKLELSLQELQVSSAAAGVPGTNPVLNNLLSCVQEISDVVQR

ACAD11 [2] = target: T4, ACAD11; experiment: Kinobeads two-dose competition binding: ACAD11; details: sheet CATDS matrix 2; Gene Name ACAD11
GRK6 = target: T6, GRK6 (Homo sapiens, UniProt P43250); experiment: Kinobeads two-dose competition binding: GRK6; details: Kinobeads two-dose, Drugmatrix - all 2; read-out: apparent Kd GRK6
T6 construct: endogenous in cells
T6 sequence (P43250 whole entry): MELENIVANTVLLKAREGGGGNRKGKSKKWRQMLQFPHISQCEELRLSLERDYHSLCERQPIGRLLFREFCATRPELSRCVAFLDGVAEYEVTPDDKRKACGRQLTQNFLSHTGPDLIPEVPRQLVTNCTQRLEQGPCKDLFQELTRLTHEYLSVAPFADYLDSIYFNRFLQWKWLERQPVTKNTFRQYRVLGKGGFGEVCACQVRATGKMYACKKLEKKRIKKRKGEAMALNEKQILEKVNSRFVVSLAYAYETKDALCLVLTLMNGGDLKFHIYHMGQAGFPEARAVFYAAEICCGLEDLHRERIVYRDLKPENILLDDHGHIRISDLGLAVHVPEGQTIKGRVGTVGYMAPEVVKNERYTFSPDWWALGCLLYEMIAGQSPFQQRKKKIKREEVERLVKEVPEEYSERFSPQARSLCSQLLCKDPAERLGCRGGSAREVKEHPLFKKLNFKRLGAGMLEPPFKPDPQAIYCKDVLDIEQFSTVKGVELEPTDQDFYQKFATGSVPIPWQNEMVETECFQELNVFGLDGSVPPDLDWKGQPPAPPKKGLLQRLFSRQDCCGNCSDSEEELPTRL

ABCD3 = target: T7, ABCD3 (Homo sapiens, UniProt P28288); experiment: Kinobeads two-dose competition binding: ABCD3; details: sheet "Kinobeads Drugmatrix - all"; unit inferred; read-out: Kinobeads Drugmatrix - all: apparent Kd, ABCD3
T7 construct: endogenous in cells
T7 sequence (P28288 1-659): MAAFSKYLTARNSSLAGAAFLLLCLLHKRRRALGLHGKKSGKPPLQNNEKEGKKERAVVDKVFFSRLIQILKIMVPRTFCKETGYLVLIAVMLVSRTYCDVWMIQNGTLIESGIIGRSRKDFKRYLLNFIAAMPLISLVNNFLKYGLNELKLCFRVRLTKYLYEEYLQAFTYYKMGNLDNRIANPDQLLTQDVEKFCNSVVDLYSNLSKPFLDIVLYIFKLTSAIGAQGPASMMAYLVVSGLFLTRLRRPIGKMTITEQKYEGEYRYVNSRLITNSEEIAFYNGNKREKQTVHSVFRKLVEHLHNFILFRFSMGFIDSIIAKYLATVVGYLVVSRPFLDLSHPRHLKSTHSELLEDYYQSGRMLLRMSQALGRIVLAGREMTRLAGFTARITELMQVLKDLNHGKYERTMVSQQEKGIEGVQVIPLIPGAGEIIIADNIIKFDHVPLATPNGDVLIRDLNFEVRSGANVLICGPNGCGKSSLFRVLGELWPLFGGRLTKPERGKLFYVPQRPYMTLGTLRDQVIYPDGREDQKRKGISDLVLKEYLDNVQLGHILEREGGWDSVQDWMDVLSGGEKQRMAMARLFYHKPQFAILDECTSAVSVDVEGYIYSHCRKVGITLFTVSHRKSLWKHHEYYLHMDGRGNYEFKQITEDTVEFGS

[3] = selectivity score from Kinobeads two-dose data

| Compound | CATDS (ACOX1) | CATDS (AAK1) | CATDS (ABL1) | CATDS (ABL2) | CATDS (ACAD11 [2]) | potency estimated from few doses (ABCD3) [nM] | other results |
| --- | --- | --- | --- | --- | --- | --- | --- |
| Cc1cc(-c2ccco2)cc(C)c1/C=C/c1cncc(-c2nn[nH]n2)c1 [GW458344A] |  |  |  |  |  |  | potency estimated from few doses (EPHB6; read-out: apparent Kd): 401 nM; CATDS (EPHB6; target EPHB6, concentration and target dependent selectivity at the apparent Kd): 1.000 |
| O=C1Nc2ccc(F)cc2/C1=C/c1ccc[nH]1 [RO0272148-000] |  |  |  |  |  |  | potency estimated from few doses (FLT3; Kinobeads two-dose (100 nM and 1 µM), mixed cell lysate, read-out: Kdapp FLT3): 99 nM; CATDSFLT3 (FLT3; [3]): 0.87; potency estimated from few doses (ACOX1; Kinobeads two-dose, mixed cell lysate, read-out: Kdapp ACOX1): > 1000 nM |
| O=c1[nH]ccc2nc(N[C@@H]3CCNC3)nc(Nc3ccc4c(c3)S(=O)(=O)CC4)c12 [GSK2181306A] | 0 | 0.01021 | 0 | 0 | 0.02228 |  | potency estimated from few doses (AAK1): 800 nM; potency estimated from few doses (ACAD11 [1]): 145 nM |
| c1ccc(-c2cnc3nccnn23)cc1 [AH20685XX] |  |  |  |  |  |  | potency estimated from few doses (GRK6): > 1000 nM |
| Cc1cc(-c2ccnc(Nc3cccc(C#N)c3)n2)cc(C)c1O [GSK1440913A] | 0 | 0.2295 | 0 | 0 | 0.1181 |  | potency estimated from few doses (AAK1): 120 nM; potency estimated from few doses (ACAD11 [1]): 425 nM |
| CCn1cc(-c2ccnc3[nH]c(-c4cccc(CN(C)C)c4)cc23)c(-c2ccc(NC(=O)N(C)C)cc2)n1 [GSK1070916] | 0 | 0 | 0 | 0 | 0 | > 1000 |  |
| CCc1nc(-c2cccc(N(C)S(=O)(=O)c3ccccc3)c2)c(-c2ccnc(Nc3ccc(N4CCN(C(C)=O)CC4)nc3)n2)s1 [GSK1645895A] | 0 | 0 | 0 | 0 | 0 | > 1000 |  |
| Cc1cc(-c2ccccn2)cc(C)c1/C=C/c1cncc(-c2nn[nH]n2)c1 [GW459057A] |  |  |  |  |  |  | potency estimated from few doses (EPHB6; read-out: Kdapp EPHB6): 162 nM; CATDSEPHB6 (EPHB6; [3]): 0.83 |
| COc1ccc(Nc2nccc(N3CCC(NC(=O)Nc4ccc5c(c4)OCO5)C3)n2)cc1 (stereo not shown) [GSK1379745A] | 0 | 0 | 0 | 0 | 0 | > 1000 |  |
